Experimental data published in US12583823B2, “Crystal form of Daprodustat, preparation method therefor and use thereof” (priority 2019, dated 2026).

Assay: Saturation solubility in water (HPLC)
Format: physicochemical
Conditions: for Saturation solubility: stirring at room temperature for 12 h, HPLC
Source text: Test product: the crystal form M, crystal form CS1, crystal form CS9 and crystal form K of the compound of the formula (I), preparation methods thereof being respectively shown in Example 1, Comparative example 1, Comparative example 2 and Comparative example 3.
The operating conditions of HPLC were as follows: • Instrument: high performance liquid chromatograph (model: Thermo U3000) • Chromatographic column: Agilent C18 column (5 μm, 150 mm×4.6 mm) • Mobile phase composition and gradient elution procedure:
• Detection wavelength: 260.4 nm • Flow rate: 1 mL/min • Injection volume: 15 μL • Column temperature: 30° C.

Structure (SMILES) | Saturation solubility [µg/mL] | Saturation solubility compared with those of the crystal form K, the crystal form CS1 and the crystal form CS9 (result in words)
O=C(O)CNC(=O)C1C(=O)N(C2CCCCC2)C(=O)N(C2CCCCC2)C1=O [Crystal form CS1, N-[(1,3-dicyclohexylhexahydro-2,4,6-trioxo-5-pyrimidinyl)carbonyl]glycine, reference compound] | 24.48 | –
O=C(O)CNC(=O)C1C(=O)N(C2CCCCC2)C(=O)N(C2CCCCC2)C1=O [Crystal form CS9, N-[(1,3-dicyclohexylhexahydro-2,4,6-trioxo-5-pyrimidinyl)carbonyl]glycine, reference compound] | 19.4 | –
O=C(O)CNC(=O)C1C(=O)N(C2CCCCC2)C(=O)N(C2CCCCC2)C1=O [Crystal form K, N-[(1,3-dicyclohexylhexahydro-2,4,6-trioxo-5-pyrimidinyl)carbonyl]glycine] | 23.36 | –
O=C(O)CNC(=O)C1C(=O)N(C2CCCCC2)C(=O)N(C2CCCCC2)C1=O [Crystal form M, N-[(1,3-dicyclohexylhexahydro-2,4,6-trioxo-5-pyrimidinyl)carbonyl]glycine] | 42.47 | significantly higher
